Legend:
Experiment in all cases: cells
Details in all cases: Homo sapiens
A-427 = type: functional, cell-based;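 further: growth inhibition of human A-427 cells, read out by a cell viability assay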
Description: SANGER: Inhibition of human A427 cell growth in a cell viability assay.

SKG-IIIa = type: functional, cell-based;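 further: cell growth inhibition, read out with a cell viability assay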
Description: SANGER: Inhibition of human SKG-IIIa cell growth in a cell viability assay.

BCPAP = type: functional, cell-based;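 further: growth inhibition of BCPAP cells, read out in a cell viability assay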
Description: SANGER: Inhibition of human BCPAP cell growth in a cell viability assay.

WM-115 = type: functional, cell-based
Description: SANGER: Inhibition of human WM-115 cell growth in a cell viability assay.

COLO-679 = type: functional, cell-based
Description: SANGER: Inhibition of human COLO-679 cell growth in a cell viability assay.

FaDu = type: functional, cell-based;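 further: cell viability readout of growth inhibition in FaDu cells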
Description: SANGER: Inhibition of human FADU cell growth in a cell viability assay.

P12-Ichikawa = type: functional, cell-based
KU-19-19 = type: functional, cell-based
Description: SANGER: Inhibition of human KU-19-19 cell growth in a cell viability assay.

HCC 2998 = type: functional, cell-based;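 further: growth inhibition of human HCC2998 cells, measured with a cell viability read-out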
Description: SANGER: Inhibition of human HCC2998 cell growth in a cell viability assay.

MEL-HO = type: functional, cell-based
Description: SANGER: Inhibition of human MEL-HO cell growth in a cell viability assay.

SW13 = type: functional, cell-based;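 further: IC50 is inhibition of SW13 cell growth, read out with a cell viability assay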
Description: SANGER: Inhibition of human SW13 cell growth in a cell viability assay.

EFO-21 = type: functional, cell-based;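 further: growth inhibition of EFO-21 cells measured with a viability assay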
Description: SANGER: Inhibition of human EFO-21 cell growth in a cell viability assay.

ACHN = type: functional, cell-based;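 further: cell viability read-out used to gauge how strongly growth of human ACHN cells is suppressed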
Description: SANGER: Inhibition of human ACHN cell growth in a cell viability assay.

IGR-1 = type: functional, cell-based;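 further: growth inhibition of human IGR-1 cells, read out with a cell viability assay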
Description: SANGER: Inhibition of human IGR-1 cell growth in a cell viability assay.

CAL-120 = type: functional, cell-based;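 further: cell growth inhibition, read out as cell viability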
Description: SANGER: Inhibition of human CAL-120 cell growth in a cell viability assay.

CHL-1 = type: functional, cell-based;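 further: cell growth inhibition, read out with a cell viability assay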
Description: SANGER: Inhibition of human CHL-1 cell growth in a cell viability assay.

RCM-1 = type: functional, cell-based;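 further: growth inhibition of the RCM-1 line, determined with a cell viability readout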
Description: SANGER: Inhibition of human RCM-1 cell growth in a cell viability assay.

VM-CUB-1 = type: functional, cell-based;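 further: cell viability assay measuring growth inhibition of the human VM-CUB-1 cell line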
Description: SANGER: Inhibition of human VM-CUB-1 cell growth in a cell viability assay.

NCI-H727 = type: functional, cell-based;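 further: growth inhibition of human NCI-H727 cells, read out with a cell viability assay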
Description: SANGER: Inhibition of human NCI-H727 cell growth in a cell viability assay.

PC-3 = type: functional, cell-based;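 further: cell viability assay measuring growth inhibition of PC-3 cells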
Description: SANGER: Inhibition of human PC-3 cell growth in a cell viability assay.

KYSE-140 = type: functional, cell-based;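 further: cell viability assay measuring growth inhibition in human KYSE-140 cells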
Description: SANGER: Inhibition of human KYSE-140 cell growth in a cell viability assay.

OVCAR-5 = type: functional, cell-based;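 further: growth inhibition of human OVCAR-5 cells, read out with a cell viability assay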
Description: SANGER: Inhibition of human OVCAR-5 cell growth in a cell viability assay.

NCI-H2170 = type: functional, cell-based;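 further: cell viability assay measuring growth inhibition of human NCI-H2170 cancer cells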
Description: SANGER: Inhibition of human NCI-H2170 cell growth in a cell viability assay.

SK-MEL-30 = type: functional, cell-based;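 further: growth inhibition of SK-MEL-30 cells, determined with a cell viability assay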
Description: SANGER: Inhibition of human SK-MEL-30 cell growth in a cell viability assay.

NCI-H630 = type: functional, cell-based;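 further: growth inhibition of NCI-H630 cells, read out with a cell viability assay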
Description: SANGER: Inhibition of human NCI-H630 cell growth in a cell viability assay.

MCF7 = type: functional, cell-based;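 further: growth inhibition of human MCF7 cells, read out with a cell viability assay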
Description: SANGER: Inhibition of human MCF7 cell growth in a cell viability assay.

BHY = type: functional, cell-based;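 further: cell growth inhibition read out by a viability assay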
Description: SANGER: Inhibition of human BHY cell growth in a cell viability assay.

SK-MEL-28 = type: functional, cell-based;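 further: growth inhibition of human SK-MEL-28 cells, read out with a cell viability assay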
Description: SANGER: Inhibition of human SK-MEL-28 cell growth in a cell viability assay.

HuCCT-1 = type: functional, cell-based, HuCCT1;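 further: growth inhibition of HuCCT-1 cells, read out by a cell viability assay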
Description: SANGER: Inhibition of human HuCCT1 cell growth in a cell viability assay.

NCI-H441 = type: functional, cell-based;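 further: growth inhibition of NCI-H441 cells, read out with a cell viability assay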
Description: SANGER: Inhibition of human NCI-H441 cell growth in a cell viability assay.

NB7 = type: functional, cell-based;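 further: growth inhibition of NB7 cells, read out with a cell viability assay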
Description: SANGER: Inhibition of human NB7 cell growth in a cell viability assay.

Panc1005 = type: functional, cell-based;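 further: growth inhibition of human PANC-10-05 cells, measured by a cell viability assay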
Description: SANGER: Inhibition of human PANC-10-05 cell growth in a cell viability assay.

CAKI-1 = type: functional, cell-based;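 further: growth inhibition of CAKI-1 cells, measured by a cell viability assay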
Description: SANGER: Inhibition of human CAKI-1 cell growth in a cell viability assay.

M14 = type: functional, cell-based;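 further: growth inhibition of M14 cells, read out with a cell viability assay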
Description: SANGER: Inhibition of human M14 cell growth in a cell viability assay.

SW1417 = type: functional, cell-based;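 further: growth inhibition of human SW1417 cells, read out with a cell viability assay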
Description: SANGER: Inhibition of human SW1417 cell growth in a cell viability assay.

786-0 = type: functional, cell-based
Description: SANGER: Inhibition of human 786-0 cell growth in a cell viability assay.

LK-2 = type: functional, cell-based;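 further: growth inhibition of LK-2 cells, read out with a viability assay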
Description: SANGER: Inhibition of human LK-2 cell growth in a cell viability assay.

HCC1937 = type: functional, cell-based;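 further: growth inhibition measured with a cell viability read-out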
Description: SANGER: Inhibition of human HCC1937 cell growth in a cell viability assay.

PANC-03-27 = type: functional, cell-based
Description: SANGER: Inhibition of human PANC-03-27 cell growth in a cell viability assay.

NCI-H2342 = type: functional, cell-based;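 further: growth inhibition of the cancer cell line, determined with a cell viability assay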
Description: SANGER: Inhibition of human NCI-H2342 cell growth in a cell viability assay.

Daoy = type: functional, cell-based;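 further: daoy cell growth inhibition, read out as cell viability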
Description: SANGER: Inhibition of human Daoy cell growth in a cell viability assay.

HuP-T4 = type: functional, cell-based;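 further: cell viability assay measuring how much HuP-T4 cell growth is inhibited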
Description: SANGER: Inhibition of human HuP-T4 cell growth in a cell viability assay.

COLO-741 = type: functional, cell-based
Description: SANGER: Inhibition of human COLO-741 cell growth in a cell viability assay.

CAPAN-1 = type: functional, cell-based;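 further: growth suppression of CAPAN-1 cells, read out by a cell viability assay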
Description: SANGER: Inhibition of human CAPAN-1 cell growth in a cell viability assay.

BPH-1 = type: functional, cell-based;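 further: cell viability assay measuring growth inhibition of human BPH-1 cells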
Description: SANGER: Inhibition of human BPH-1 cell growth in a cell viability assay.

Huh-7 = type: functional, cell-based;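 further: HuH-7 cell growth inhibition, read out with a cell viability assay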
Description: SANGER: Inhibition of human HuH-7 cell growth in a cell viability assay.

COR-L105 = type: functional, cell-based;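 further: cell growth inhibition determined with a viability assay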
Description: SANGER: Inhibition of human COR-L105 cell growth in a cell viability assay.

GMS-10 = type: functional, cell-based;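 further: growth inhibition of GMS-10 cells, read out as cell viability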
Description: SANGER: Inhibition of human GMS-10 cell growth in a cell viability assay.

T84 = type: functional, cell-based;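 further: growth inhibition measured with a cell viability readout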
Description: SANGER: Inhibition of human T84 cell growth in a cell viability assay.

HCC1419 = type: functional, cell-based;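 further: growth inhibition of human HCC1419 cells, read out as cell viability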
Description: SANGER: Inhibition of human HCC1419 cell growth in a cell viability assay.

DBTRG-05MG = type: functional, cell-based;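 further: cell viability assay measuring growth inhibition of human DBTRG-05MG cells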
Description: SANGER: Inhibition of human DBTRG-05MG cell growth in a cell viability assay.

CCCS(=O)(=O)Nc1ccc(F)c(C(=O)c2c[nH]c3ncc(Cl)cc23)c1F [PLX-4720]
IC50 (A-427): > 10 µM | IC50 (SKG-IIIa): > 10 µM | IC50 (BCPAP): 7.22 µM | IC50 (WM-115): 0.887 µM | IC50 (COLO-679): 1.1 µM | IC50 (FaDu): > 10 µM | IC50 (P12-Ichikawa): > 10 µM | IC50 (KU-19-19): > 10 µM | IC50 (HCC 2998): > 10 µM | IC50 (MEL-HO): 0.412 µM | IC50 (SW13): > 10 µM | IC50 (EFO-21): > 10 µM | IC50 (ACHN): > 10 µM | IC50 (IGR-1): > 10 µM | IC50 (CAL-120): > 10 µM | IC50 (CHL-1): 5.98 µM | IC50 (RCM-1): > 10 µM | IC50 (VM-CUB-1): > 10 µM | IC50 (NCI-H727): > 10 µM | IC50 (PC-3): > 10 µM | IC50 (KYSE-140): > 10 µM | IC50 (OVCAR-5): > 10 µM | IC50 (NCI-H2170): > 10 µM | IC50 (SK-MEL-30): 1.33 µM | IC50 (NCI-H630): > 10 µM | IC50 (MCF7): > 10 µM | IC50 (BHY): > 10 µM | IC50 (SK-MEL-28): 1.05 µM | IC50 (HuCCT-1): > 10 µM | IC50 (NCI-H441): > 10 µM | IC50 (NB7): 6.21 µM | IC50 (Panc1005): > 10 µM | IC50 (CAKI-1): > 10 µM | IC50 (M14): 0.218 µM | IC50 (SW1417): > 10 µM | IC50 (786-0): > 10 µM | IC50 (LK-2): > 10 µM | IC50 (HCC1937): > 10 µM | IC50 (PANC-03-27): > 10 µM | IC50 (NCI-H2342): > 10 µM | IC50 (Daoy): > 10 µM | IC50 (HuP-T4): > 10 µM | IC50 (COLO-741): 8.02 µM | IC50 (CAPAN-1): > 10 µM | IC50 (BPH-1): > 10 µM | IC50 (Huh-7): > 10 µM | IC50 (COR-L105): > 10 µM | IC50 (GMS-10): > 10 µM | IC50 (T84): > 10 µM | IC50 (HCC1419): > 10 µM | IC50 (DBTRG-05MG): 4.53 µM

Reference: ChEMBL document CHEMBL1201861, “Genomics of Drug Sensitity in Cancer screening data, Wellcome Trust Sanger Institute”
